Read-outs that look alike come from different tables or passages of the source.
Legend:
[1] = test system: home cage exploration in handling-stressed mice; assay: Home cage activity after handling and injection stress; format: in vivo
Method: FIG. 15 depicts the effect of acute i.p. dp6FNE (1 mg/kg) or cirazoline (0.1 mg/kg), (N=1), on home cage activity in terms of rearing and ambulation, Veh (N=12).
6FNE has a more rapid and/or greater antidepressant effect than either of these agonists because 6FNE is the only known selective α-agonist that has full efficacy at all brain α-adrenoceptors and 6FNE works within minutes (Stone, et al. 2011) whereas cirazoline was given to mice over several months prior to testing in one model (forced swim test) in the above experiment by Doze et al, 2009. […] (Stone, E A, Lin Y, Quartermain, D, Unpublished results)
It is known that peripheral administration of α1-agonists without phentolamine impairs exploratory behavior in the open field (Yang, et al., J Pharmacol exp Ther 1990; 255: 1064-1070).

[2] = test system: model of chronic depression in mice (repeated forced swim); conditions: for acute antidepressant (anti-immobility) effect in the RFS: single acute i.p. administration minutes before the swim, low doses, prazosin 0.2 mg/kg present
Text: We administered the pro-drugs shortly before one or more tests of antidepressant activity including reversal of immobility during tail suspension and forced swimming and attenuation of anhedonia produced by endotoxin administration. […] (Stone et al., Eur. J. Pharmacol. (2001) 420: 97-102) Because dp6FNE like all other antidepressants has an initial anorexic effect and acutely reduces the consumption of sweet solutions, in the test for anhedonia it was necessary to employ a non-nutritive hedonic behavior, FUST (sniffing of estrous female urine). […] (Stone et al., Neuropsychopharmacology (2011) 14: 319-331); Sun et al., J. Neurosci. Methods (2003) 126:35-40; Sun et al., Behavioral Pharmacology (2008) 19: 334-338).
Mice were swum for 15 min/d on 4 d and tested for the response to acute i.p dp6FNE (1 or 3 mg/kg) alone or in combination with 8-OHDPAT (0.05 mg/kg) and corticosterone (3 mg/kg) on the 5th and final swim (15 min after drug administration). […] Comparison groups receiving currently available antidepressants were treated acutely i.p. or chronically (14 d osmotic pumps) with either desmethylimipramine (DMI) (10 mg/kg), fluoxetine (5 mg/kg), escitalopram (5 mg/kg), bupropion (10 mg/kg) or ketamine (10 mg/kg).
Although corticosteroids are well known to produce depression (Gourley et al., Biol Psychiatry (2008) 64: 884-890), this occurs at high doses only. […] Mice were swum for 3 d and given either vehicle (0.8% ethanol) or corticosterone (12.5 μg/ml) in their drinking water.
As described in Example 4a, the cocktail was tested in a mouse model of chronic depression (RFS).

[3] = test system: open field behavior (locomotion and center square occupancy); assay: Open field motor activity and anxiety after capture and injection; format: in vivo, mice; conditions: corticosterone 12.5 μg/ml in drinking water (4.6 mg/kg)
Method: To determine if the agonists had motor stimulating or sedative actions, mice were allowed to explore an open field undisturbed for 60 min and were then captured and injected i.p. with either vehicle or the full “cocktail” of the 3 […] (dp6FNE 1 mg/kg; 8-OHDPAT, 0.05 mg/kg; corticosterone, 3 mg/kg, praz, 0.2 mg/kg) before being replaced in the field for a final 15 min. The vehicle injection (praz present) reduced subsequent locomotion and time spent in the center of the field by −76.8±11.0% and −78.5±12.4%, respectively, from preceding levels, indicating an anxiogenic effect of the injection procedure. The injection of the “cocktail”, however, rescued both locomotion and center time to −12.9±1.9% and −25.3±6.9%, respectively, indicating a strong anti-anxiety effect with no motor stimulation or sedation (FIG. 9).
In addition to its antidepressant property, the cocktail is also effective in producing a significant antianxiety effect without sedation in these animals. The applicants have tested for this effect using an open field in which animals are placed and permitted to explore freely after which they are captured, restrained briefly for an ip. injection of saline and returned to the field for a final 15 min. […]

PVH Fos expression = assay: Fos expression in the PVH, RFS model, corticosterone in the drinking water; format: in vivo, mice; conditions: versus veh
Text: (§1) GR agonists such as corticosterone and dexamethasone are well known to produce selective inhibition of the neural activity of parvocellular PVH neurons at low doses (Keller-Wood et al., Endo Rev (1982) 5: 1-24; Dallman et al., Ann N Y Acad Sci 91987) 512: 402-414). This effect was shown in a previous experiment on the effects of corticosterone in the drinking water on Fos expression in the PVH or piriform cortex of mice subjected to the RFS model (Stone et al., eur J Pharmacol (2007) In Press). The animals were swum a total of 3 times and on the night prior to the 3rd swim given corticosterone at 12.5, 25 or 50 μg/ml in the drinking water. These concentrations produced nighttime intakes of 4.6, 10.7 and 14.2 mg/kg. The mice were given the 3rd and final swim the following morning, 0800-1000 h, and were anesthetized and perfused 70 min after the start of the swim for immunohistochemical assay of Fos in the PVH and in the piriform cortex, a control region that supports positively motivated behavior (Carr et al., Neuropsychopharmacology (2010) 35: 752-763; Stone et al., Neurosci Biobehav Revs (2008a) 32: 508-524).

[4] = test system: Fos expression in the piriform cortex; assay: Fos expression in the piriform cortex, RFS model, corticosterone in the drinking water; format: in vivo, mice; conditions: versus veh
Text: as §1

[5] = test system: repeated open-space swim model; assay: Repeated open-space (forced) swim test; format: in vivo, mice; conditions: for antidepressant activity in the repeated open-space forced swim test: intracerebral administration
Text: (§2) The first test involves an acute stress-induced model of depression (Steru, et al., Psychopharmacology 1985; 85: 367-370) whereas the second, a more prolonged, chronic depression that is more akin to chronic human depression (Stone, et al., Pharmacol Biochem Behav 2008; 91: 190-195).

[6] = test system: immobility in tail suspension test; assay: Tail suspension test (TST); format: in vivo, mice; conditions: intracerebral administration
Method: (§3) In the RFS study, mice were subjected to 4 daily 15 min swims as described above and were injected i.p. with either vehicle or dp6FNE (3 mg/kg) 15 min prior to the 5th swim. In the TST study, animals were injected similarly before a 6 min test. […] The animals were anesthetized and perfused for immuno-histochemistry 70 min after the start of the swim or tail suspension. Brains were processed as described previously for double-label immunofluorescent Fos/tyrosine hydroxylase staining of all sections through the LC and for single-label Fos staining through the full PVH (Stone et al., Brain Res (2009) 1291: 21-31).
To determine if dp6FNE was active in a more traditional test of antidepressant activity, it was given as above 15 min prior to a tail suspension test.
as §2

[7] = test system: locomotor behavior in an open field; assay: Open field locomotor behavior after ivt. 6FNE or i.p. dp6FNE versus amphetamine; format: in vivo, mice
Method: 6FNE and dp6FNe were tested for their effects on motor activity by measuring locomotor behavior in an open field after either ivt. (6FNE) or i.p. injection (dp6fNE) in mice. These mice were compared to animals that were either non handled or received either a vehicle ivt injection or an i.p. injection of the stimulant, amphetamine (5 mg/kg). The results are shown in FIG. 6 and in (Stone, Lin Y, Sarfraz Y, and Quartermain D, 2011). […] Furthermore, the increase in activity after 6FNE was minor in comparison with the bona fide stimulant, amphetamine which produced a 10 fold increase. The small increase over the vehicle group therefore appears to be the result of a reduction of the stress caused by the handling and restraint for the ivt. injection which is in agreement with the reduced activation of brain stress circuits discussed above. This interpretation was supported by an examination of the time in the center or risky area of the field spent by the various groups. […] A slight reduction in motor behavior at the low doses (0.1-0.3 mg/kg) were, however, observed.

[8] = prazosin: at 0.2 mg/kg in mice; cited from earlier work
Fos expression in the LC = Fos expression in the LC during the RFS model; format: in vivo, mice; conditions: prazosin 0.2 mg/kg; vehicle animals compared with previous results without prazosin
Method: as §3, with “21-31). […] In the tail suspended mice the analogous reductions were 53.5±7.2% (LC) and 36.7±3.1 (PVH). […] These findings thus indicate that a dose of […] dp6FNE that has preferential inhibitory effects on the LC during depression exists.” for “21-31).”

[9] = oral; cited from earlier work
[10] = corticosterone 12.5 μg/ml in drinking water, nighttime intake 4.6 mg/kg, mice swum for 3 d, versus vehicle
[11] = corticosterone 25 μg/ml in drinking water, nighttime intake 10.7 mg/kg
[12] = corticosterone 50 μg/ml in drinking water, nighttime intake 14.2 mg/kg

With c1ccc(C2CC2)c(OCC2=NCCN2)c1 [cirazoline] the “effect by itself on movement and motor behavior in the home cage” value ([1]; cirazoline i.p., unpublished results) was “pronounced inhibition of movement and motor behavior” and the “behavioral inhibition in the home cage following handling and injection stress” value ([1]; i.p., dp6FNE (1 mg/kg) in the presence of phentolamine, cirazoline (0.1 mg/kg)) was “not effective in reducing behavioral inhibition”.
In the case of CNC1(c2ccccc2Cl)CCCCC1=O (stereo not drawn) [ketamine], the “acute antidepressant (anti-immobility) effect in the RFS” value (shortened to “acute antidepressant”) [2] is reported as “None of the currently available antidepressants that were tested, including ketamine, appeared acutely effective”.
In the case of C[C@]12C[C@H](O)[C@H]3[C@@H](CCC4=CC(=O)CC[C@@]43C)[C@@H]1CC[C@@H]2C(=O)CO [corticosterone], the “increase of distance swum” value [2, 10] is reported as “+107.7±15.8%”, the reduction in immobility [2, 10] is reported as −36.6±5.7% and the “acute antidepressant” value [2] is reported as “rapid and effective preclinical antidepressant actions”. For the same compound, the “acute antidepressant” value ([2]; listed as corticosteroid) was “immediate and effective antidepressant action”, the open field locomotion [3] was “No effect” and the “reduction of PVH Fos expression” value (PVH Fos expression; corticosterone 12.5 μg/ml in drinking water, nighttime intake 4.6 mg/kg, 70 min after start of 3rd swim) was −51.7±17%. The “reduction of PVH Fos expression” value (PVH Fos expression; [11]) was −66.8±8.5%, the “reduction of PVH Fos expression” value (PVH Fos expression; [12]) was −63.7±11.0% and the “increase of Fos expression in the piriform cortex” value (from here on “increase of Fos expression”) ([4]; corticosterone 12.5 μg/ml in drinking water, nighttime intake 4.6 mg/kg) was “+203.3±78.6%”. The “increase of Fos expression” value [4, 11] was “+175.3±53.9%” and the “increase of Fos expression” value [4, 12] was “+193.3±67.4%”.
With CNCCCN1c2ccccc2CCc2ccccc21 [DMI, desmethylimipramine] the “acute effect in the repeated open-space swim test” value ([5]; acute i.p., dp6FNE at 1, 3 and 10 mg/kg given along with phentolamine 5 mg/kg i.p.) was “complete lack of effect”.
In the case of NCC(O)c1cc(O)c(O)cc1F (stereo not drawn) [6FNE, 6-fluoronorepinephrine], the “antidepressant activity in the tail suspension test” value [6] is reported as “equally effective”, the “antidepressant activity in the repeated open-space forced swim test” value [5] is reported as “effective” and the “time in the center of the field” value ([7]; 6FNE ivt. or dp6FNE i.p.) is reported as “restored this behavior back to the level of the non-handled controls”. For the same compound, the “effect on motor activity in the open field” value ([7]; mouse, in vivo, ip) was “no change in activity compared to the non-handled animals” and the “passage of the blood brain barrier” value [8] was “does not pass the blood brain barrier”.
In the case of CC(N)Cc1ccccc1 (stereo not drawn) [amphetamine], the “increase in activity in the open field” value ([7]; amphetamine 5 mg/kg i.p.) is reported as 10 fold.
With COc1cc2nc(N3CCN(C(=O)c4ccco4)CC3)nc(N)c2cc1OC [prazosin] the “effect of receptor blockade on the antidepressant actions of dp6FNE in the RFS” value ([2]; high dose systemic prazosin or α2-antagonist atipamezole given with dp6FNE) was “significantly reversed the antidepressant actions of pro-drug in the RFS” and the “effect of the antagonist on LC or PVH Fos” value (Fos expression in the LC) was “no effect”.
With Cc1cccc([C@H](C)c2cnc[nH]2)c1C [dexmedetomidine] the “antidepressant activity in the tail suspension test” value [6] was “equally effective” and the “antidepressant activity in the repeated open-space forced swim test” value [5] was “only 6FNE was effective”.
For C[C@@H]1C[C@H]2[C@@H]3CCC4=CC(=O)C=C[C@]4(C)[C@@]3(F)[C@@H](O)C[C@]2(C)[C@@]1(O)C(=O)COP(=O)(O)O [dexamethasone sodium phosphate], the bioavailability [9] is listed as “approximately 0.5”.
For CCC1(c2cnc[nH]2)Cc2ccccc2C1 [atipamezole], the “effect of receptor blockade on the antidepressant actions of dp6FNE in the RFS” value ([2]; mouse, in vivo) was “significantly reversed the antidepressant actions of pro-drug in the RFS”.
